Experimental data from patent publication US20050112131A1, “Methods of adjuvant photodynamic therapy to enhance radiation sensitization” (priority 2002, published 2005).

Key:
RIF-1 tumors [1] = assay: Tumor regrowth assay, photodynamic therapy alone or combined with radiation; type: in vivo, mice
Description: The combination effect of photodynamic therapy and radiation therapy was examined in in vivo tumor models. Injection of PBD or saline (control) was given 3 hours prior to irradiation in all animals. Light at 690 nm wavelength was delivered t the photodynamic therapy treated animals while the animal was positioned in the irradiator cone. An irradiance of 133 mW/cm^2 was used for a total of 12 minutes, for a total dose of 100 J/cm^2. Radiation was administered at a single dose of 10 Gy (300 keV, 10 mA, HVL=2.33 Gy/min). The following groups were organized: (1) sham-irradiated controls, (2) radiation treatment alone, (3) photodynamic therapy alone, (4) radiation treatment followed by photodynamic therapy, and (5) photodynamic therapy with simultaneous radiation treatment. In Group 4, X-ray radiation was administered for the full 3-minute treatment period after the photosensitizer was injected and incubated in the animal for 3 hours, then irradiation was given for 12 minutes. The Group 5 animals received irradiation 3 hours after drug injection, and during the last three minutes of the irradiation. X-ray irradiation was also given to the tumor at the same time.
Irradiation using the 10 Gy dose using approximately 300 keV was delivered in 3 minutes from a Pantak Therapax 300 orthovoltage irradiator, using a 2 cm collimation cone. This cone was contacted with a region of the mouse leg surrounding the tumor. The end of the collimation cone was comprised of transparent plastic, allowing radiation and treatment to occur at the same time (required for Group 5, where photodynamic therapy and radiation were simultaneously administered). All animals were treated with the cone in place, as well as Group 1 sham-irradiated mice and Group 3 photodynamic therapy alone mice. This was performed to ensure equal doses of light were given to all groups, which included changes in the beam from reflection and refraction through the irradiator cone.
Each group of mice were assayed for tumor regrowth following combined radiation/photodynamic therapy, radiation alone, or photodynamic therapy alone. The resulting treatment effect was assayed by calculation of tumor volume, as calculated by measurement of the three major axis dimensions: Volume≅Length×Width×Height/2 The time for a tumor to reach double its volume on the day of treatment was calculated for each individual animal separately, by estimating the data by a linear fit to logarithmic growth curves versus time. The average values from these times to double in volume were determined for each group of mice. Analysis of the tumor regrowth data, estimates of the mean double time (including standard deviation), and mice heterogeneity was achieved by generating individual growth curve data and fitting with a mixed effect model. It was assumed that after day 3, the tumor re-grows exponentially, which corresponds to a linear function when plotted on a semi-logarithmic graph. The time for a tumor to reach double its volume on the day of treatment was calculated for each group along with the respective standard deviation. The standard error gives rise to the group comparison using X-test to account for significant differences between the mean values of the different treatment groups.

RIF-1 tumors [2] = assay: Tumor oxygen by EPR oximetry at different irradiances; type: in vivo, mice; settings: light 3 hours post-injection; for tumor pO2 levels during treatment, low irradiance: 50 mW/cm^2 verteporfin, 30 mW/cm^2 ALA-PPIX; for tumor pO2 levels during treatment, high irradiance: 200 mW/cm^2 verteporfin, 150 mW/cm^2 ALA-PPIX
Description: Tumor oxygen changes were measured in mice treated either with aminolevulinic acid-induced protoporphyrin IX (ALA-PPIX) or verteporfin. Using electron paramagnetic resonance (EPR) oximetry described in Example 1, two irradiance levels were performed three hours post-injection of verteporfin or ALA-PPIX. Irradiance levels for ALA-PPIX were 30 mW/cm^2 and 150 mW/cm^2, whereas 50 mW/cm^2 and 200 mW/cm^2 were used for verteporfin.
EPR oximetry measured tumor oxygenation in RIF-1 tumor cells and in tumorigenic mice treated with photodynamic therapy, using synthetic lithium phthalocyanine (LiPc) as the oxygen-sensitive EPR material. Small particles between 50 and 200 μm in size were implanted into the animal tumors by 23-gauge needle at a depth of 1-3 mm within the tumor. Injections of LiPc were performed at least 24 hours prior to photodynamic therapy. Mice were placed in an L-band (1.2 GHz) EPR spectrometer with a microwave bridge that was custom-built for small animal experiments involving measurement of tissue pO2. Each mouse was anesthetized and placed in the EPR resonator for continuous measurement of the tumor tissue pO2 in 15-minute intervals. The external loop resonator was positioned over the tumor to record the EPR signal of injected LiPc within the tissue. Line widths of the EPR signal were converted to pO2 using a calibration curve determined for LiPc. The data were fit with a software program to match the Voigt line shape after the line widths were graphed as a function of time before, during, and after treatment.

RIF-1 cells [3] = assay: Cell viability (MTS assay) after in vitro photodynamic therapy; type: cell-based, mouse; settings: 1 μg/ml BPD, 3-hour incubation, maximal light dose, MTS 24 hours after treatment
Description: RIF-1 cells were plated three days prior to treatment in black, plastic 96-well plates with a transparent bottom (Fisher Scientific, Springfield, N.J.) at a density of 5000 cells/200 μl medium/well. After 3 days of growth in 5% CO2 at 37° C. in a humidified incubator, the cells were used in photodynamic therapy. On the day of treatment, the medium was replaced with 100 μl/well of medium with 1 μg/ml BPD in the verteporfin preparation. After a 3-hour incubation, the BPD solution was removed and rinsed once with Hanks Balanced Salt Solution (HBSS), then 100 μl of fresh medium was added to the wells. Cells were irradiated in groups of four wells, with blank wells between the treated groups to ensure that each group of wells received the correct dose of light. […]
Surviving cells were assayed 24 hours after treatment, using the MTS assay kit (CellTiter 96®AQueous, Promega, Madison, Wis.). […] After incubation for 1 h at 37° C., the absorbance of the formazan product at […] was measured directly in an automated plate reader (ThermoMax, Molecular Devices, Menlo Park, Calif.). The quantity of formazan product as measured by the amount of 490 nm absorbance units is directly proportional to the number of living cells in culture, and absorbance values from groups of wells that received the same light dose were averaged. […]

RIF-1 tumors [4] = assay: Tumor pO2 by EPR oximetry during verteporfin photodynamic therapy; type: in vivo, mice
Description: Measurements of tumor partial pressure of oxygen (pO2) were taken in mice that harbored tumors derived from injection of transformed cells. Radiation-induced fibrosarcoma (RIF-1) cells were used for in vivo studies. RIF-1 cells were obtained from the National Cancer Institute (NCI) and originated from the laboratory of James B. Mitchell. The cells were grown in culture in RPMI 1640 cell culture medium, supplemented with 10% fetal bovine serum (FBS), L-glutamine, and appropriate antibiotics. The cells were not passaged more than four times from the original stock. Cell cultures were scaled up to large culture flasks, then removed and resuspended in medium lacking FBS and injected at 4×10^6 cells/mouse in a 50 μl volume. Intradermal injection delivered the cancer cells into the upper right leg of female C3h/HeJ mice (age 5-6 weeks) approximately 11-14 days before the anticipated treatment time.
Verteporfin was obtained from QLT Phototherapeutics Inc. (Vancouver, BC, Canada) for use as photosensitizer. The photoactive molecule is a benzoporphyrin derivative mono-acid ring ‘A’ (BPD-MA), which was suspended in a lipid preparation comprising 1.77% of BPD-MA and the remaining 98.23% composed of the lipids. Verteporfin was reconstituted in phosphate buffered saline (PBS) at a final concentration of 0.2 mg BPD-MA/ml, then injected into mice lateral tail vein to deliver a dose of 1 mg BPD-MA per kg of body weight. The drug was allowed to incubate for varying times prior to light exposure.
A diode laser system with 200 mW average power was used, at a wavelength of 690 nm (Applied Optronics, South Plainfield, Conn.). The beam was delivered to the tumor site in animals through a 140 μm fiber-optic, and was expanded onto the tumor in a circular top-hat beam, using a fiber-optic collimator (Thor Labs, North Newton, N.J.). The beam diameter for in vivo experiments was 1.1 cm, producing an irradiance of 200 mW/cm^2. Light treatment was given transcutaneously with shaven animals.
Animals were anesthetized by isoflurane at a concentration of 1.5% mixed with 26% oxygen in a continuous flow, delivered by inhalation. The animal was maintained at 37° C. on a heated water pad. Warm air was allowed to flow over the animal. In the first treatment group, tumors were exposed to light three hours after verteporfin injection. The second group received light only 15 minutes after injection. These animals were monitored for tumor pO2 before, during, and after treatment. The second experimental group is thought to be indicative of eliciting a vascular occlusion response, and contrasts effects from 3-hour photosensitizer incubation. The third group received light without prior photosensitizer injection.
Tumor pO2 was monitored with an oxygen-sensitive electron paramagnetic resonance (EPR) probe material, synthetic lithium phthalocyanine (LiPc), which was implanted into tissue and allowed for stable measurements of tissue pO2 over several weeks. […] LiPc molecules between 50 and 200 μm in diameter were implanted into the animal tumors with a 23-gauge needle at least 24 hours before photodynamic therapy, allowing for resolution of acute fluctuations in pO2 due to injection. The particles were implanted at a depth of 1-3 mm within the tumor.
The animals were placed in an L-band (1.2 GHz) EPR spectrometer with a custom-made microwave bridge for measurements of tissue pO2. The external loop resonator was positioned over the tumor to record the EPR signal of the LiPc from within the tissue. […]

RIF-1 cells [5] = assay: In vitro cellular oxygen consumption rate by EPR oximetry; type: cell-based, mouse; settings: 1 μg/ml BPD, 3-hour incubation
Description: RIF-1 cells were plated three days prior to treatment in black, plastic 96-well plates with a transparent bottom (Fisher Scientific, Springfield, N.J.) at a density of 5000 cells/200 μl medium/well. After 3 days of growth in 5% CO2 at 37° C. in a humidified incubator, the cells were used in photodynamic therapy. On the day of treatment, the medium was replaced with 100 μl/well of medium with 1 μg/ml BPD in the verteporfin preparation. After a 3-hour incubation, the BPD solution was removed and rinsed once with Hanks Balanced Salt Solution (HBSS), then 100 μl of fresh medium was added to the wells. Cells were irradiated in groups of four wells, with blank wells between the treated groups to ensure that each group of wells received the correct dose of light. In each 96-well plate, squares of 4 were treated with increasing light doses with 8 groups/plate, including the control, non-irradiated group. Surviving cells were assayed for viability and/or cellular oxygen consumption.
Immediately following photodynamic therapy, cells were trypsinized, suspended in fresh medium, and cell viability determined by trypan blue dye exclusion prior to use in oxygen consumption measurement. […] The rate of oxygen consumption was measured using EPR. […] A Bruker EMX EPR spectrometer measured all spectra, operating at 9 GHz. […] The slope of the obtained data was determined by linear regression. […]

RIF-1 tumors [6] = assay: Tumor pO2 by Eppendorf electrode after ALA photodynamic therapy; type: in vivo, mice
Description: To independently confirm the results described above in ALA-PPIX-treated animals, Eppendorf pO2 electrode measurements were performed in the same tumor model. Two sections of animals with tumors were irradiated for 45 minutes. The first group of animals received ALA-injections 3 hours prior to light irradiation at a concentration of 100 mg/kg, and the second group received light alone. The light was at a wavelength of 633 nm, at a fluence of 150 mW/cm^2. Measurements were taken from the tumors immediately after the light was turned off. […] Collected data were pooled from three tracks in each animal with seven control animals (FIG. 7A) and 6 treated animals (FIG. 7B). The median pO2 for the control group was 3.7 mm Hg, while the median for the treated group was 8.7 mm Hg. Clearly, significant increases in tumor oxygenation occurred after treatment.

[7] = Group 4, radiation (10 Gy) then PDT
[8] = Group 5, PDT with simultaneous radiation (10 Gy)

Question: How did the “Re-growth Delay in Doubling Time” value (RIF-1 tumors [1]; Group 3, PDT only) turn out when “benzoporphyrin derivative mono-acid ring ‘A’ (BPD-MA) [Verteporfin]” was run?
Answer: 3.2 ± 1.7

Question: And the “slope of the natural logarithm of tumor volume versus days” value (RIF-1 tumors [1]; Group 3, PDT only)?
Answer: 0.13

Question: And the “Time for Tumor to Double Initial Volume” value (RIF-1 tumors [1]; Group 3, PDT only, injection 3 hours before 690 nm light, 100 J/cm^2)?
Answer: 8.9 ± 1.7

Question: What about the “Re-growth Delay in Doubling Time” value (RIF-1 tumors [1]; [7]) of the same compound?
Answer: 5.4 ± 1.4

Question: And the “Time for Tumor to Double Initial Volume” value (RIF-1 tumors [1]; [7])?
Answer: 11.0 ± 1.5

Question: What about the “slope of the natural logarithm of tumor volume versus days” value (RIF-1 tumors [1]; Group 4, radiation then PDT) of the same compound?
Answer: 0.13

Question: What about the “slope of the natural logarithm of tumor volume versus days” value (RIF-1 tumors [1]; Group 5, PDT with simultaneous radiation) of the same compound?
Answer: 0.11

Question: What about the “Re-growth Delay in Doubling Time” value (RIF-1 tumors [1]; [8]) of the same compound?
Answer: 8.1 ± 1.5

Question: And the “Time for Tumor to Double Initial Volume” value (RIF-1 tumors [1]; [8])?
Answer: 13.7 ± 1.6

Question: What about the “tumor pO2 levels during treatment, low irradiance” value (RIF-1 tumors [2]) of the same compound?
Answer: remained the same

Question: What about the “tumor pO2 levels during treatment, high irradiance” value (RIF-1 tumors [2]) of the same compound?
Answer: remained the same

Question: What about the cell survival (RIF-1 cells [3]) of the same compound?
Answer: 20±5%

Question: What about the “tumor pO2 at 1 h post-treatment” value (RIF-1 tumors [4]; 1 mg/kg BPD-MA i.v., light 3 hours after injection) of the same compound?
Answer: returned to within control, or pre-treatment values

Question: What about the “final tumor pO2 immediately after treatment” value (RIF-1 tumors [4]; 1 mg/kg BPD-MA i.v., light 3 hours after injection, 690 nm, 144 J/cm^2, p=0.048 vs control) of the same compound?
Answer: 15.2±6.9 mm Hg

Question: What about the “initial tumor pO2” value (RIF-1 tumors [4]; 1 mg/kg BPD-MA i.v., light 3 hours after injection, value before light) of the same compound?
Answer: 2.8±1.0 mm Hg

Question: And the “average tumor pO2 prior to light exposure” value (RIF-1 tumors [4]; 1 mg/kg BPD-MA injected 15 min prior to irradiation)?
Answer: 6.8±1.6 mm Hg

Question: What about the “average tumor pO2 immediately following treatment” value (RIF-1 tumors [4]; 1 mg/kg BPD-MA injected 15 min prior to irradiation (vascular targeting)) of the same compound?
Answer: 4.1±0.3 mm Hg

Question: What about the oxygen consumption rate (RIF-1 cells [5]; highest light dose 16 J/cm^2) of the same compound?
Answer: 0.37±0.04 mmol/min/10^6 cells

Question: And the “oxygen consumption as % of control oxygen consumption rates” value (RIF-1 cells [5]; maximal light dose)?
Answer: 21±4%

Question: Which results are given for `NCC(=O)CCC(=O)O` [ALA, 5-aminolevulinic acid]?
Answer: tumor pO2 levels during treatment, low irradiance (RIF-1 tumors [2]): remained the same; tumor pO2 levels during treatment, high irradiance (RIF-1 tumors [2]): a measurable drop in oxygen; median tumor pO2 immediately after light (RIF-1 tumors [6]; 100 mg/kg ALA 3 hours prior to 633 nm light, 150 mW/cm^2 for 45 minutes, light-only control median 3.7): 8.7 mm Hg; increase in tumor oxygenation (RIF-1 tumors [6]; EPR oximetry and Eppendorf electrode, treated vs control): more than two-fold increases
